Experimental data as given in patent US9549917B2, “Heterocyclic-substituted benzofuran derivatives and methods of use thereof for the treatment of viral diseases” (priority 2011, dated 2017).

Key:
HCV replicon genotype 1a = experiment: HCV replicon assay, genotype 1a (cell ELISA for NS3/4A); type: cell-based; settings: Hepatitis C virus, 96 h, read-out: 1a IC50 (nM)
Procedure: (§1) Measurement of inhibition by compounds was performed using the HCV replicon system. Several different replicons encoding different HCV genotypes or mutations were used. In addition, potency measurements were made using different formats of the replicon assay, including different ways of measurements and different plating formats. See Jan M. Vrolijk et al., A replicons-based bioassay for the measurement of interferons in patients with chronic hepatitis C, 110 J. V[…] 201 (2003); Steven S. Carroll et al., Inhibition of Hepatitis C Virus RNA Replication by 2′-Modified Nucleoside Analogs, 278(14) J. BIOLOGICAL CHEMISTRY 11979 (2003). However, the underlying principles are common to all of these determinations, and are outlined below.
(§2) Stable neomycin phosphotransferase encoding replicons-harboring cell lines were used, so all cell lines were maintained under G418 selection prior to the assay. Potency was determined using a cell ELISA assay with an antibody to the replicons encoded NS3/4a protease. See Caterina Trozzi et al., In Vitro Selection and Characterization of Hepatitis C Virus Serine Protease Variants Resistant to an Active-Site Peptide Inhibitor, 77(6) J. Virol. 3669 (2003). To initiate an assay, replicon cells were plated in the presence of a dilution series of test compound in the absence of G418. Typically, the assays were performed in a 96-well plate formate for manual operation, or a 384-well plate format for automated assay. Replicon cells and compound were incubated for 96 hours. At the end of the assay, cells were washed free of media and compound, and the cells were then lysed. RNA was quantified indirectly through detection of replicon-encoded NS3/4A protein levels, through an ELISA-based assay with an antibody specific for NS3/4A. IC50 determinations were calculated as a percentage of a DMSO control by fitting the data to a four-parameter fit function and the data obtained is provided in the table below.
(§3) Data for selected compounds of the present invention was obtained for genotypes 1a and 1b using this method and is provided in the table below: […]

HCV replicon genotype 1b = experiment: HCV replicon assay, genotype 1b (cell ELISA for NS3/4A); type: cell-based; settings: Hepatitis C virus, 96 h, read-out: 1b IC50 (nM)
Procedure: as §1, §2, §3

SMILES | IC50 (HCV replicon genotype 1a) | IC50 (HCV replicon genotype 1b)
CNC(=O)c1c(-c2ccc(F)cc2)oc2cc(N(C)S(C)(=O)=O)c(-c3cc(-c4cc5c(F)cccc5[nH]4)ncc3Cl)cc12 [Compound 292] | 12 nM | 13 nM
CNC(=O)c1c(-c2ccc(F)cc2)oc2cc(N(CC(F)F)S(C)(=O)=O)c(-c3cc(-c4nc5ncccc5o4)ccn3)cc12 [Compound 170] | 27 nM | 5.1 nM
CNC(=O)c1c(-c2ccc(F)cc2)oc2cc(N(C)S(C)(=O)=O)c(-c3cnnc(-n4ncc5c(F)cccc54)c3)cc12 [Compound 264] | 25 nM | 10 nM
CNC(=O)c1c(-c2ccc(F)cc2)oc2cc(N(C)S(C)(=O)=O)c(-c3cncc(-c4nc5c(s4)CCCC5)c3)cc12 [Compound 82] | 0.8 nM | 1.1 nM
CNC(=O)c1c(-c2ccc(F)cc2)nn2cc(N(C)S(C)(=O)=O)c(-c3nccc(-c4cc5ccccc5[nH]4)n3)cc12 [Compound 210] | 11 nM | 4.7 nM
CNC(=O)c1c(-c2ccc(F)cc2)oc2ccc(-c3cc(-c4cc5c(F)cccc5[nH]4)nnc3C)cc12 [Compound 270] | 42 nM | 36 nM
CNC(=O)c1c(-c2ccc(F)cc2)oc2cc(N(C)S(C)(=O)=O)c(-c3cc(-c4cc5c(F)cccc5[nH]4)nc(N)n3)cc12 [Compound 272] | 4.2 nM | 4.4 nM
CNC(=O)c1c(-c2ccc(F)cc2)oc2cc(N(C)S(C)(=O)=O)c(-c3nc(-c4cc5c(F)cccc5[nH]4)ns3)cc12 [Compound 258] | 2.6 nM | 2.5 nM
CNC(=O)c1c(-c2ccc(F)cc2)oc2cc(N(C)S(C)(=O)=O)c(-c3cc(-c4cc5c(C#N)cccc5[nH]4)cnn3)cc12 [Compound 230] | 1.4 nM | 1.9 nM
CNC(=O)c1c(-c2ccc(F)cc2)oc2cc(N(C)S(C)(=O)=O)c(-c3cncc(-c4ccc5cc(C(F)(F)F)cnc5n4)c3)cc12 [Compound 180] | 5.4 nM | 2.3 nM
CNC(=O)c1c(-c2ccc(F)cc2)oc2cc(N(C)S(C)(=O)=O)c(-c3cnnc(-c4cc5cccnc5n4C)c3)cc12 [Compound 284] | 6 nM | 2.7 nM
CNC(=O)c1c(-c2ccc(F)cc2)oc2cc(N(C)S(C)(=O)=O)c(-c3cc(-c4cc5ccccc5[nH]4)c(OC)cn3)cc12 [Compound 202] | 8.4 nM | 7.6 nM
